# Laboratory results published in patent EP0351720B1, “Use of substituted 3,4-dihydro-2H-benzopyrans as medicaments against obstructive disorders of the lung” (HOECHST AKTIENGESELLSCHAFT, priority 1988, dated 1990).
# System: Histamin-induzierte Bronchokonstriktion
# Assay: Influence on histamine-induced bronchoconstriction in anaesthetised, ventilated guinea pigs (modified Konzett-Rössler method), test substance given as aerosol
# Format: in vivo, Meerschweinchen
# Conditions: for % Hemmung der Histamin-induzierten Bronchokonstriktion: n = 6, change vs control
# Protocol: a) Beeinflussung von Atemwegsstörungen Einfluß auf die histamin-induzierte Bronchokonstriktion am Meerschweinchen
# Albino-Meerschweinchen beiderlei Geschlechts mit einem Gewicht zwischen 450 und 550 g wurden mit 60 mg/kg Pentobarbital i.p. narkotisiert. Nach Tracheotomie wurden sie mit einer Starlingpumpe (Fa. Braun, Melsungen) beatmet. Das Atemvolumen wurde so gewählt, daß die Lungen ausgiebig belüftet wurden. Der Beatmungsdruck wurde mit Hilfe einer Wassersäule auf 80 mm H₂O eingestellt (Rosenthal und Dervinis). Die Atemfrequenz betrug 30 Atemzüge/min. Ein Überschuß an verfügbarer Atemluft kann durch einen Nebenweg im Einatemschlauch zu einer als Wasser-Überdruckventil geschalteten Waschflasche gelangen. Wird von der Starling-Pumpe durch den Einatemschlauch Luft in die Lunge geblasen, so füllt sich diese so lange, bis der Druck in dem System den durch die Höhe der Wassersäule eingestellten Wert (80 mm H₂O) erreicht hat. Die noch weiter zuströmende Luft fließt durch das Überdruckventil in die Waschflasche. Dieser Luftüberschuß, der nach Überschreiten des eingestellten Drucks in die Flasche entweicht, wird mit Hilfe eines Pistonrekorders gemessen und gilt als Maß für eine Veränderung des Atemwiderstands. Die Messung erfolgte in einer von der ursprünglichen Konzett-Rössler-Methode leicht modifizierten Weise, indem der Pistonrekorder durch ein Staudruckrohr nach Fleisch (Typ 0000) ersetzt wurde. Der auftretende Druckunterschled wurde mit einem Differenzdruckwandler Statham PM 97 TC erfaßt. Zur Aufzeichnung der Meßwerte diente ein Mehrfachkanalschreiber der Fa. Hellige.
# Die Testsubstanzen werden als Aerosol mit Hilfe eines Ultraschallverneblers (Monaghan M 650) verabreicht. Die Verneblerkammer wird in den Einatemschlauch der Atempumpe zwischengeschaltet und den Tieren gestattet, das Aerosol 1 min lang einzuatmen. Das zu vernebelnde Volumen beträgt 0,02 ml/min.
# Vernebelt wird eine physiologische Kochsalzlösung, der die zu prüfende Substanz in Form einer Lösung in Propandiol zugesetzt wird.
# In einem Kontrollversuch wird sichergestellt, daß das Lösemittel Propandiol/physiologische Kochsalzlösung keine Eigenwirkung besitzt.
# Eine Bronchokonstriktion wird durch Gaben von Histamindihydrochlorid (6 - 12 »g/kg i.v.) induziert. Die Injektion erfolgt durch einen in die V. jugularis eingeführten Katheter. Die Dosierung wird so gewählt, daß ein respiratorischer "Überfluß" von 60 % des angebotenen Atemvolumens während der Histamin-induzierten Bronchokonstriktion auftritt. Die Histamingaben erfolgen in 5-Minuten-Intervallen. Nach mindestens 3 gut reproduzierbaren Bronchokonstriktionen werden die Testsubstanzen als Aerosol 1 min lang verabreicht und nach einer Einwirkungszeit von 2 min erneut die Bronchokonstriktion induziert und in 5-Minuten-Intervallen wiederholt. […]
smiles,measurement,setting,value
"CC1(C)Oc2ccc(S(=O)(=O)c3ccccc3)cc2C(N2CCCC2=O)C1O (single isomer, unassigned; (+)) [Beispiel 5a, (+)-3,4-Dihydro-2,2-dimethyl-6-phenylsulfonyl-4-(2-oxo-1-pyrrolidinyl)-2H-benzo[b]pyran-3-ol]",ED50,"Cavia porcellus, inhaled or nasal, aerosol, determined by linear regression of the % inhibition results, read-out: ID₅₀",4.39 µg/kg
same,% Hemmung der Histamin-induzierten Bronchokonstriktion,Dosis 1 »g/kg as aerosol for 1 min,14 ± 4%
same,% Hemmung der Histamin-induzierten Bronchokonstriktion,Dosis 3 »g/kg as aerosol for 1 min,35 ± 4%
same,% Hemmung der Histamin-induzierten Bronchokonstriktion,Dosis 10 »g/kg as aerosol for 1 min,77 ± 7%
